Source: patent publication US20100234417A1, “THYROTROPIN RELEASING HORMONE RECEPTOR-OREXIN RECEPTOR HETERO-DIMERS/-OLIGOMERS” (DIMERIX BIOSCIENCE PTY LTD., priority 2006, published 2010)
Ends that are not written are not given here.

Tested on: TRHR335 with TRHR
Test: eBRET: TRHR335/Rluc + EGFP/barr1 + TRHR as IG3
Type: cell-based
Details: FIG. 9
Description: Briefly, referring to FIGS. 1 to 3, the IGs are provided in the form of the two receptors (TRHR and OxR). One of the two is attached to an RC (IG1-RC1, IG3). A second IG (IG2-RC2) is derived from a molecule that interacts with the receptors upon ligand binding (e.g. beta-arrestin, or a mutant thereof). The detection system not only detects the formation of the TRHR-OxR heterodimer but can distinguish whether a ligand or drug acts as an agonist, partial agonist, antagonist, inverse agonist or partial inverse agonist at the receptor hetero-dimer.
Cells were seeded in 6-well plates at a density of approximately 630,000 cells/well (HEK293FT) or approximately 150,000 cells/well (COS-7) and maintained at 37° C., 5% CO2 in Complete Media (DMEM containing 0.3 mg/ml glutamine, 100 IU/ml penicillin and 100 μg/ml streptomycin (Gibco)) supplemented with 10% fetal calf serum (FCS; Gibco). […] BRET measurements were taken at 37° C. using the Victor Light plate reader with Wallac 1420 software (Perkin-Elmer). Filtered light emissions were sequentially measured for 3-5 s in each of the ‘donor wavelength window’ (400-475 nm) and ‘acceptor wavelength window’ (>500 nm for EGFP or 520-540 nm for EYFP, Topaz (TYFP) or Venus). […] Unless otherwise stated, BRET signals were measured in 96-well microplates. […]

## OxA: orexin A; known orexin receptor modulator, used as IG3 ligand (modulator) (QPLPDCCRQKTCSCRLYELLHGAGNHAAGILTL; ends and bridges not checked; cysteine pairing not given here; UniProt O43612 34-66, looked up)
  eBRET signal: no eBRET signal above baseline
